Reference: ChEMBL document CHEMBL1909046, “DrugMatrix in vitro pharmacology data”

Columns and labels:
Melanocortin receptor 5 = Melanocortin receptor 5 (Homo sapiens, UniProt P33032); format: cell membranes, HEK293, Membrane; details: hek293; note: in other assays of this panel Not Active means under 50% inhibition at 10 µM
Progesterone receptor = target: T1, Progesterone receptor (Bos taurus, UniProt Q690N0); test: DRUGMATRIX: Progesterone radioligand binding (ligand: [3H] R-5020); format: tissue-based, Uterus; details: Not Active = under 50% inhibition at 10 µM
T1 sequence (Q690N0 whole entry): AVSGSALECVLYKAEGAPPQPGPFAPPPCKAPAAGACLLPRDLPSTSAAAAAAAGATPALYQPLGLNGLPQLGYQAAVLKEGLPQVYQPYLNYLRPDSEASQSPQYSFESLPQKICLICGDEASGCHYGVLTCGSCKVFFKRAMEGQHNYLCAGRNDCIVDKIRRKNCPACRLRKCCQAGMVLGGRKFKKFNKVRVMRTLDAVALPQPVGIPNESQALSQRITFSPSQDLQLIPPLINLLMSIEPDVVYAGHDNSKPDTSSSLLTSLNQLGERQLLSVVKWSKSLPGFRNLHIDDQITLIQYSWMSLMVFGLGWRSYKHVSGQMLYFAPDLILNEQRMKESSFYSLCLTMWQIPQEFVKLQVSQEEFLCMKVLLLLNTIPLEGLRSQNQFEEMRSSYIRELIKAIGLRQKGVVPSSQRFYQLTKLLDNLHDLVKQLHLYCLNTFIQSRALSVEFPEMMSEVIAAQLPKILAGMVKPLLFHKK

[1] = target: Protein phosphatase 3 catalytic subunit alpha (Homo sapiens, UniProt Q08209); set-up: species or system Escherichia coli;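 note: inhibition of calcineurin (PP2B) enzyme activity, measured with DiFMUP as the substrate; in other assays of this panel Not Active means under 50% inhibition at 10 µM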
[2] = target: Beta-2 adrenergic receptor (Homo sapiens, UniProt P07550); test: DRUGMATRIX: Adrenergic beta2 radioligand binding (ligand: [3H] CGP-12177); format: cell membranes, Membrane; details: cho; Not Active = under 50% inhibition at 10 µM
[3] = DRUGMATRIX: GABAA, Muscimol, Central radioligand binding (ligand: [3H] Muscimol); format: cell membranes, Rattus norvegicus, Wistar, Brain, Membrane; details: Not Active = under 50% inhibition at 10 µM
[4] = target: T2, Cholecystokinin receptor type A (Homo sapiens, UniProt P32238); format: cell membranes, Membrane; details: 1321-n1; note: in other assays of this panel Not Active means under 50% inhibition at 10 µM
T2 sequence (P32238 whole entry): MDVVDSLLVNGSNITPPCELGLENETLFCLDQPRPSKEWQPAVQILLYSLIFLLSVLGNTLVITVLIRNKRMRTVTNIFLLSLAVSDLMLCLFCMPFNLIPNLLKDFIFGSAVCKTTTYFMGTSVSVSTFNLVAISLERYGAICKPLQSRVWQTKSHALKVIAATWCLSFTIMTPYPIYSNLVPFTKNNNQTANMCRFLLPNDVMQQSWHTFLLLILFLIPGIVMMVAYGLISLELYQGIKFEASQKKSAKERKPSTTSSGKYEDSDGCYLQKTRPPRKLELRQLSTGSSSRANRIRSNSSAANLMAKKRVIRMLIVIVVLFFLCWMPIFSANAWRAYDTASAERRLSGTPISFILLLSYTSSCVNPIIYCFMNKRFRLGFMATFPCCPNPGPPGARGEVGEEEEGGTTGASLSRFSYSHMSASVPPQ

[5] = target: T3, Vasoactive intestinal polypeptide receptor 1 (Homo sapiens, UniProt P32241); format: cell membranes, Membrane; details: ht-29; note: in other assays of this panel Not Active means under 50% inhibition at 10 µM
T3 sequence (P32241 whole entry): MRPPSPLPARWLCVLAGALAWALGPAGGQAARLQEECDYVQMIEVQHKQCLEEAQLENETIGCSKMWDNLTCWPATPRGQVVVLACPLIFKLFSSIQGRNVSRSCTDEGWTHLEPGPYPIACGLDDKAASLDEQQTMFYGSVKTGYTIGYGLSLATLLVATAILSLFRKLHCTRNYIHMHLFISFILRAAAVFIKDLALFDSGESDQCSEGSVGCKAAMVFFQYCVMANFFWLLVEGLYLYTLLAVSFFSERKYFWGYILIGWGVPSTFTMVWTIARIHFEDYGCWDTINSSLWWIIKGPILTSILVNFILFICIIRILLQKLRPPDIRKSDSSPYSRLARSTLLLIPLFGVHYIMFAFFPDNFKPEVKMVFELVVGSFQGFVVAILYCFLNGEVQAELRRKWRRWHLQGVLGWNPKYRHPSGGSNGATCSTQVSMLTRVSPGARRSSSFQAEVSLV

[6] = target: T4, Amine oxidase [flavin-containing] A (Homo sapiens, UniProt P21397); test: DRUGMATRIX: Monoamine Oxidase MAO-A enzyme inhibition (substrate: Kynuramine); set-up: species or system BTI-TN-5B1-4; details: bti-tn-5b1-4; Not Active = under 50% inhibition at 10 µM
T4 sequence (P21397 whole entry): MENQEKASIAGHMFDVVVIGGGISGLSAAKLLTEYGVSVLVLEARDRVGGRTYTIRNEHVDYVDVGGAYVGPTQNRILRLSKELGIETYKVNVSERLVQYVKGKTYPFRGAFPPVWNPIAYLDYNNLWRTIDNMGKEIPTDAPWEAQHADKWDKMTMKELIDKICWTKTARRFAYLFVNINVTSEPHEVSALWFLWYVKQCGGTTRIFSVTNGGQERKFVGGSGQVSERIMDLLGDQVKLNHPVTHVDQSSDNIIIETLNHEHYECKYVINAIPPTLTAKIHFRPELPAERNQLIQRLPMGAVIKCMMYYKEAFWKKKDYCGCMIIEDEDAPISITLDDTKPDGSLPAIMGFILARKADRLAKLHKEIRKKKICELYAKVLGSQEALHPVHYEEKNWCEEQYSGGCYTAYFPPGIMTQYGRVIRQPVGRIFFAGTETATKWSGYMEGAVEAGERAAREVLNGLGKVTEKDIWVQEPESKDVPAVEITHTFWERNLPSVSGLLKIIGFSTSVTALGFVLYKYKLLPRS

[7] = target: T5, Neuropeptide Y receptor type 1 (Homo sapiens, UniProt P25929); format: cell membranes, Membrane; details: sk-n-mc; note: in other assays of this panel Not Active means under 50% inhibition at 10 µM
T5 sequence (P25929 whole entry): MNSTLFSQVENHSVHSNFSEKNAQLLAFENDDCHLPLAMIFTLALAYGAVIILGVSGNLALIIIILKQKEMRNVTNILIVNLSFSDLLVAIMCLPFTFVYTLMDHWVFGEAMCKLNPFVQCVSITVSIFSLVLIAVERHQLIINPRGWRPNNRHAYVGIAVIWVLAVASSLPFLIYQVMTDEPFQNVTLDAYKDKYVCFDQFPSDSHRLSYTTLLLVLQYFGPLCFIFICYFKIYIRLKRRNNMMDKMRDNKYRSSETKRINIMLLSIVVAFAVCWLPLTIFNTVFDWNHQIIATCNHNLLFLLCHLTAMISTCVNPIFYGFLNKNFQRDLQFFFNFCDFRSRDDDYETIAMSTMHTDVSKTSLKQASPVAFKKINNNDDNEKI

Cytochrome P450 2C9 = Cytochrome P450 2C9 (Homo sapiens, UniProt P11712); details: bti-tn-5b1-4; note: in other assays of this panel Not Active means under 50% inhibition at 10 µM
[8] = DRUGMATRIX: Tumor Necrosis Factor (TNF), Non-Selective radioligand binding (ligand: [125I] TNF-alpha); format: cell membranes, Membrane; details: u-937; Not Active = under 50% inhibition at 10 µM

Beta-2 adrenergic receptor, sequence (P07550 whole entry): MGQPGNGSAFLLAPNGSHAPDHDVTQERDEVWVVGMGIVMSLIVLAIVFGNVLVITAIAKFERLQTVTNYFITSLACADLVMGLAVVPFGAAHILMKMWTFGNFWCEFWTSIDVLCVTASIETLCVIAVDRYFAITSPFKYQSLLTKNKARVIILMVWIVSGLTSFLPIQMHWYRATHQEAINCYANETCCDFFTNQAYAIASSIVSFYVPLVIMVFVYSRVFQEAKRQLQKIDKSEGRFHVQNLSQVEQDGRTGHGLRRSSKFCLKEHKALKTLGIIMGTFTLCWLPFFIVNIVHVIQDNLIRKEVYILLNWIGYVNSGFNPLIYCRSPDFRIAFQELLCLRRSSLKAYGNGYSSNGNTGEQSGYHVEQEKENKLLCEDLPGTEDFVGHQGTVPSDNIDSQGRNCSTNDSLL
Melanocortin receptor 5, sequence (P33032 whole entry): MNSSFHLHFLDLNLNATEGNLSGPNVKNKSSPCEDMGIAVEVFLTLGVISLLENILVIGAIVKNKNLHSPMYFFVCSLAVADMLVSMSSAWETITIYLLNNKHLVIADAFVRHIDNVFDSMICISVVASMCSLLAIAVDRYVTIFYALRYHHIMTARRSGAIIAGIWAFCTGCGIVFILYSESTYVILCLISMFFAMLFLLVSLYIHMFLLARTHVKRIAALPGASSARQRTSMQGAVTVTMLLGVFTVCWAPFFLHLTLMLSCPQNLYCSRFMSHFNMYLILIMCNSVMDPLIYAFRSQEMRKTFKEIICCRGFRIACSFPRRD
Cytochrome P450 2C9, sequence (P11712 whole entry): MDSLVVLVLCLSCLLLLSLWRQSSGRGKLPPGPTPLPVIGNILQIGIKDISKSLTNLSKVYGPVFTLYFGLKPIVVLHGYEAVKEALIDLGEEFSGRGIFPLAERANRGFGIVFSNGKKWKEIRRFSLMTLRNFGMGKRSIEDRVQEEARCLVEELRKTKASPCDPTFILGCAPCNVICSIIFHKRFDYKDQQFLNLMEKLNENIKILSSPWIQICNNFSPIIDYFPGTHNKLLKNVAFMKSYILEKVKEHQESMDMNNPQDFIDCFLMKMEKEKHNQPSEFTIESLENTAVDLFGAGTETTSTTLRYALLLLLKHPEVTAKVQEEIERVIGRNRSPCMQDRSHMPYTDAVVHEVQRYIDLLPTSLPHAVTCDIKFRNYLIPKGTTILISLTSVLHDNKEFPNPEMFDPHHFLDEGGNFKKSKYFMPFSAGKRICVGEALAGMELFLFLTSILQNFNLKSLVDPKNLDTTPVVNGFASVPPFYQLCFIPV

O=c1[nH]cc(F)c(=O)[nH]1 [FLUOROURACIL]
Not Active: IC50 (Melanocortin receptor 5) | IC50 (Progesterone receptor) | IC50 [1] | IC50 [2] | IC50 [3] | Ki [3] | IC50 [4] | IC50 [5] | IC50 [6] | IC50 [7] | IC50 (Cytochrome P450 2C9) | Ki (Cytochrome P450 2C9) | IC50 [8] | Ki [8]

OCc1ccccc1 [BENZYL ALCOHOL]
Not Active: IC50 (Melanocortin receptor 5) | IC50 (Progesterone receptor) | IC50 [1] | IC50 [2] | IC50 [3] | Ki [3] | IC50 [4] | IC50 [5] | IC50 [6] | IC50 [7] | IC50 (Cytochrome P450 2C9) | Ki (Cytochrome P450 2C9) | IC50 [8] | Ki [8]

CC1(C)[C@@H](O[C@H]2O[C@H](C(=O)O)[C@@H](O)[C@H](O)[C@H]2O[C@@H]2O[C@H](C(=O)O)[C@@H](O)[C@H](O)[C@H]2O)CC[C@]2(C)[C@H]3C(=O)C=C4[C@@H]5C[C@@](C)(C(=O)O)CC[C@]5(C)CC[C@@]4(C)[C@]3(C)CC[C@@H]12 [GLYCYRRHIZIN]
Not Active: IC50 (Melanocortin receptor 5) | IC50 (Progesterone receptor) | IC50 [1] | IC50 [2] | IC50 [3] | Ki [3] | IC50 [4] | IC50 [5] | IC50 [6] | IC50 [7] | IC50 (Cytochrome P450 2C9) | Ki (Cytochrome P450 2C9) | IC50 [8] | Ki [8]

CCCCCCCCCc1ccc(O)cc1 [4-NONYLPHENOL]
Not Active: IC50 (Melanocortin receptor 5) | IC50 (Progesterone receptor) | IC50 [1] | IC50 [2] | IC50 [3] | Ki [3] | IC50 [4] | IC50 [5] | IC50 [6] | IC50 [7] | IC50 (Cytochrome P450 2C9) | Ki (Cytochrome P450 2C9) | IC50 [8] | Ki [8]

CNC(=O)Oc1ccc2c(c1)[C@]1(C)CCN(C)[C@@H]1N2C [PHYSOSTIGMINE]
Not Active: IC50 (Melanocortin receptor 5) | IC50 (Progesterone receptor) | IC50 [1] | IC50 [2] | IC50 [3] | Ki [3] | IC50 [4] | IC50 [5] | IC50 [6] | IC50 [7] | IC50 (Cytochrome P450 2C9) | Ki (Cytochrome P450 2C9) | IC50 [8] | Ki [8]

CCCC[C@@H](CC)COC(=O)c1ccccc1C(=O)OC[C@@H](CC)CCCC [BIS(2-ETHYLHEXYL)PHTHALATE]
Not Active: IC50 (Melanocortin receptor 5) | IC50 (Progesterone receptor) | IC50 [1] | IC50 [2] | IC50 [3] | Ki [3] | IC50 [4] | IC50 [5] | IC50 [6] | IC50 [7] | IC50 (Cytochrome P450 2C9) | Ki (Cytochrome P450 2C9) | IC50 [8] | Ki [8]

O=C1OC2(c3ccc(O)cc3Oc3cc(O)ccc32)c2ccccc21 [FLUORESCEIN]
Not Active: IC50 (Melanocortin receptor 5) | IC50 (Progesterone receptor) | IC50 [1] | IC50 [2] | IC50 [3] | Ki [3] | IC50 [4] | IC50 [5] | IC50 [6] | IC50 [7] | IC50 (Cytochrome P450 2C9) | Ki (Cytochrome P450 2C9) | IC50 [8] | Ki [8]

CC1COc2c(N3CCN(C)CC3)c(F)cc3c(=O)c(C(=O)O)cn1c23 (stereo not given) [OFLOXACIN]
Not Active: IC50 (Melanocortin receptor 5) | IC50 (Progesterone receptor) | IC50 [1] | IC50 [2] | IC50 [3] | Ki [3] | IC50 [4] | IC50 [5] | IC50 [6] | IC50 [7] | IC50 (Cytochrome P450 2C9) | Ki (Cytochrome P450 2C9) | IC50 [8] | Ki [8]

COc1ccc([C@@H]2Sc3ccccc3N(CCN(C)C)C(=O)[C@@H]2OC(C)=O)cc1 [DILTIAZEM]
Not Active: IC50 (Melanocortin receptor 5) | IC50 (Progesterone receptor) | IC50 [1] | IC50 [2] | IC50 [3] | Ki [3] | IC50 [4] | IC50 [5] | IC50 [6] | IC50 [7] | IC50 (Cytochrome P450 2C9) | Ki (Cytochrome P450 2C9) | IC50 [8] | Ki [8]

CC(C)(S)[C@@H](N)C(=O)O [PENICILLAMINE]
Not Active: IC50 (Melanocortin receptor 5) | IC50 (Progesterone receptor) | IC50 [1] | IC50 [2] | IC50 [3] | Ki [3] | IC50 [4] | IC50 [5] | IC50 [6] | IC50 [7] | IC50 (Cytochrome P450 2C9) | Ki (Cytochrome P450 2C9) | IC50 [8] | Ki [8]
